Experimental data from EP0017484A1, “2-Imidazoline derivatives, process for the preparation thereof and the pharmaceutical composition of the same” (FUJISAWA PHARMACEUTICAL CO., LTD., priority 1979, dated 1980).

How the values were obtained:
male ddy strain mice = assay: Analgesic activity: acetic acid writhing syndrome; format: in vivo; details: Mus musculus, po; orally 60 minutes before i.p. 0.6% acetic acid; writhing observed from 3 to 13 minutes; Litchfield-Wilcoxon method
Description: Ten male ddy strain mice were used for each dose. To estimate the frequency of writhing syndrome, the animals were observed from 3 to 13 minutes after an intraperitoneal injection of 0.2 ml/10 g of 0.6% acetic acid. The drugs were given orally 60 minutes before acetic acid. The frequency of writhing syndrome in the treated animals was compared with that in the non-treated control animals.
The ED50 value was calculated according to Litchfield-Wilcoxon method.

Sprague-Dawley rats = assay: Anti-inflammatory activity: carrageenin hind paw edema; format: in vivo; details: 100 mg/kg orally 60 minutes before carrageenin (1.5%, 0.1 ml); paw weight after 3 hours versus control animals
Description: Ten Sprague-Dawley rats were used per group. The right hind paw of the rat was injected subcutaneously under the plantar surface with 0.1 ml of carrageenin (1.5%). After 3 hours, the animals were sacrificed. The normal and edematous hind paws were cut off at the tibio-dorsal joint and weighed. The difference in the weight of edematous paw and that of normal paw was a measure of the edema. The test compound (100 mg/kg) was administered orally 60 minutes before the irritating agent. Paw swelling of treated animals was compared with that of control animals.

| SMILES | ED50 (male ddy strain mice) [mg/kg] | Inhibitory effect (Sprague-Dawley rats) [%] |
| --- | --- | --- |
| COc1cc(Oc2ccccc2NC2=NCCN2)cc(OC)c1OC [2-[2-(3,4,5-Trimethoxyphenoxy)phenyl]amino-2-imidazoline] | 50.1 | – |
| Cc1ccc(NC2=NCCN2)c(Oc2ccccc2)c1 [2-(2-Phenoxy-4-methylphenyl)amino-2-imidazoline] | – | 48.4 |
